From patent EP1201238A1, “SULFONAMIDE DERIVATIVES AND REMEDIES FOR ALLODYNIA” (ONO PHARMACEUTICAL CO., LTD., priority 1999, dated 2001) come the findings set out here.

Data set [1] deals with Allodynia caused by PGF2α. The data set is described as follows: inhibitory effect on allodynia caused by intrathecal injection of PGF2α. The class given is in vivo, male ddY mice. The note with it: mixture of PGF2α (1µg/body) and compound (100ng/body) injected intrathecally, mice, touch-stimulus score 15min after administration. On the procedure:
(§1) Five or six male ddY mice weighing 22± 2 g in a group were used. Under non-anesthesia, the mixture (5µL) of PGE2 (10ng/body) and a compound (10ng/body) with 27-gauge was injected intrathecally with stainless injection needle (0.33 mm, o.d.) between fifth and sixth vertebra lumbar of a mouse, 5. min after administration, to tail from belly side of a mouse was touch-stimulated with brush and allodynia was evaluated by score.
(§2) Score is 0: no changed, 1: escaped from touch-stimulus and squeaked, 2: escaped vigorously from touch-stimulus and squeaked loudly. When All the subjects got score 2, it was evaluated as 100% of allodynia expression.
(§3) For example, When, in six mice, score 0 is one, score 1 is three and score 2 is two, % of allodynia expression is below: ((0×1) + (1×3) + (2×2))/(6×2)× 100 = 58. 3(%) [formula]
(2) an inhibitory effect on allodynia caused by intrathecal injection of PGF2α
The experiment was the same as (1) with the exception that the mixture of PGF2α (1µg/body) and a compound (100ng/body) was used as administered drug and allodynia was evaluated at 15min after administration.

Data set [2] deals with Allodynia caused by PGE2. The data set can be described thus: inhibitory effect on allodynia caused by intrathecal injection of PGE2. The conditions noted are these: for % of allodynia expression, Allodynia caused by PGE2: mixture of PGE2 (10ng/body) and compound (10ng/body) injected intrathecally, mice, touch-stimulus score 5 min after administration, 100% = all subjects score 2; for anti-allodynia effect (in words): summary of tables 1, 2 and 3 (PGE2- and PGF2α-induced allodynia, mice). In kind it is in vivo, male ddY mice. On the procedure:
(1) an inhibitory effect on allodynia caused by intrathecal injection of PGE2
as §1, §2, §3

Data set [3] can be described thus: toxicity, maximal tolerated dose with oral administration. The conditions noted are these: in vivo, rat. On the procedure:
The toxicity of the compounds of the present invention is very low and therefore the compounds may be considered safe for pharmaceutical use. For example, the maximal tolerated dose with oral administration of the compounds of formula (I), (IV) and (VI) was more than 2000 mg/kg in rat.

Turning to `O=C(O)CCC/C=C\[C@H]1[C@H]2CC[C@H](C2)[C@@H]1CNS(=O)(=O)c1ccccc1F` [formula (II), 6-[(1S,2S,3S,4R)-3-(2-fluorophenylsulfonylaminomethyl)bicyclo[2.2.1]heptan-2-yl]-5Z-hexenoic acid], the “% of allodynia expression, Allodynia caused by PGF2α” value (from here on “% of allodynia expression … by PGF2α”) in data set [1] turned out to be 8.3 ± 8.3%. Moreover, in data set [2], the “% of allodynia expression, Allodynia caused by PGE2” value (shortened to “% of allodynia expression … by PGE2”) was found to be 0.0 ± 0.0%.

Turning to `O=C(O)CCC/C=C\[C@H]1[C@H]2CC[C@H](C2)[C@@H]1CNS(=O)(=O)c1ccc(F)c(F)c1` [Formula(III), 6-[(1S,2S,3S,4R)-3-(3,4-difluorophenylsulfonylaminomethyl)bicyclo[2.2.1]heptan-2-yl]-5Z-hexenoic acid], the “% of allodynia expression … by PGF2α” value in data set [1] was 8.3 ± 8.3%. Further, in data set [2], the “% of allodynia expression … by PGE2” value is reported as 0.0 ± 0.0% and the “anti-allodynia effect (in words)” value is “effective”.

As to `CC1(C)[C@H]2C[C@H](NS(=O)(=O)Cc3ccccc3)[C@@H](C/C=C\CCCC(=O)O)[C@@H]1C2` [comparison compound 5, 7-[(1S,2S,3S,5R)-3-benzylsulfonylamino-6,6-dimethylbicyclo[3.1.1]heptan-2-yl]-5Z-heptenoic acid, reference compound], the “% of allodynia expression … by PGF2α” value in data set [1] stood at 83.3 ± 10.5%. The “% of allodynia expression … by PGE2” value in data set [2] is 83.3 ± 10.5%.

As to `O=C(O)CCC/C=C\[C@H]1[C@H]2CC[C@H](C2)[C@@H]1CNS(=O)(=O)c1ccccc1Cl` [comparison compound 1, 6-[(1S,2S,3S,4R)-3-(2-chlorophenylsulfonylaminomethyl)bicyclo[2.2.1]heptan-2-yl]-5Z-hexenoic acid, reference compound], the “% of allodynia expression … by PGF2α” value in data set [1] is 91.7 ± 8.3%. Also, in data set [2], the “% of allodynia expression … by PGE2” value was 100 ± 0.0% and the “anti-allodynia effect (in words)” value is “no effect”.

On to `O=C(O)CCC/C=C\[C@H]1[C@H]2CC[C@H](C2)[C@@H]1CNS(=O)(=O)c1c(Cl)cccc1Cl` [comparison compound 3, 6-[(1S,2S,3S,4R)-3-(2,6-dichlorophenylsulfonylaminomethyl)bicyclo[2.2.1]heptan-2-yl]-5Z-hexenoic acid, reference compound], for which, in data set [2], the “% of allodynia expression … by PGE2” value came to 91.7 ± 8.3% and the “anti-allodynia effect (in words)” value is “no effect”.

For the molecule `O=C(O)CCC/C=C\[C@H]1[C@@H]2CC[C@@H](C2)[C@@H]1CNS(=O)(=O)c1ccc(F)c(F)c1` [comparison compound 4, 6-[(1R,2S,3S,4S)-3-(3,4-difluorophenylsulfonylaminomethyl)bicyclo[2.2.1]heptan-2-yl]-5Z-hexenoic acid, reference compound], the “% of allodynia expression … by PGE2” value in data set [2] stood at 75.0 ± 11.2%.

Turning to `O=C(O)CCC/C=C\[C@H]1[C@H]2CC[C@H](C2)[C@@H]1CNS(=O)(=O)c1ccccc1I` [formula (I), 6-[(1S,2S,3S,4R)-3-(2-iodophenylsulfonylaminomethyl)bicyclo[2.2.1]heptan-2-yl]-5Z-hexenoic acid], in data set [1], the “% of allodynia expression … by PGF2α” value was found to be 8.3 ± 8.3%. Besides, the MTD (usually the largest dose that counted as tolerated) in data set [3] was more than 2000 mg/kg. Further, the “% of allodynia expression … by PGE2” value in data set [2] amounted to 8.3 ± 8.3%.

With `O=C(O)CCC/C=C\C[C@H]1[C@@H]2CC[C@@H](C2)[C@@H]1NS(=O)(=O)c1ccccc1` [comparison compound 6, reference compound], the “% of allodynia expression … by PGF2α” value in data set [1] worked out at 60.0 ± 10.0%. In addition, the “% of allodynia expression … by PGE2” value in data set [2] is 90.0 ± 10.0%.

As to `O=C(O)CCC/C=C\[C@H]1[C@@H]2CC[C@@H](C2)[C@@H]1CNS(=O)(=O)c1cc(F)ccc1F` [Formula(IV), 6-[(1R,2S,3S,4S)-3-(2,5-difluorophenylsulfonylaminomethyl)bicyclo[2.2.1]heptan-2-yl]-5Z-hexenoic acid], the “% of allodynia expression … by PGF2α” value in data set [1] turned out to be 0.0 ± 0.0%. The molecule further returned an MTD in data set [3] of more than 2000 mg/kg. Also, in data set [2], the “% of allodynia expression … by PGE2” value is given as 8.3 ± 8.3% and the “anti-allodynia effect (in words)” value is “effective”.

Regarding `CC1(C)[C@H]2C[C@H](NS(=O)(=O)c3ccccc3)[C@@H](C/C=C\CCCC(=O)O)[C@@H]1C2` [formula (VI), 7-[(1S,2S,3S,5R)-3-benzenesulfonylamino-6,6-dimethylbicyclo[3.1.1]heptan-2-yl]-5Z-heptenoic acid], in data set [1], the “% of allodynia expression … by PGF2α” value came out at 0.0 ± 0.0%. Moreover, in data set [3], the MTD was more than 2000 mg/kg. For the same molecule, in data set [2], the “% of allodynia expression … by PGE2” value is on record as 8.3 ± 8.3% and the “anti-allodynia effect (in words)” value was “have activity”.

`COc1ccc(S(=O)(=O)N[C@H]2C[C@H]3C[C@@H]([C@@H]2C/C=C\CCCC(=O)O)C3(C)C)cc1` [formula (V), 7-[(1S,2S,3S,5R)-3-(4-methoxybenzenesulfonylamino)-6,6-dimethylbicyclo [3.1.1]heptan-2-yl]-5Z-heptenoic acid]: the “% of allodynia expression … by PGF2α” value in data set [1] amounted to 8.3 ± 8.3%. Further, in data set [2], the “% of allodynia expression … by PGE2” value was 8.3 ± 8.3% and the “anti-allodynia effect (in words)” value is given as “have activity”.

With `O=C(O)CCC/C=C\[C@H]1[C@@H]2CC[C@@H](C2)[C@@H]1CNS(=O)(=O)c1ccccc1I` [comparison compound 2, 6-[(1R,2S,3S,4S)-3-(2-iodophenylsulfonylaminomethyl)bicyclo[2.2.1]heptan-2-yl]-5Z-hexenoic acid, reference compound], the “% of allodynia expression … by PGE2” value in data set [2] was determined as 83.3 ± 10.5%.
